Columns and labels:
Conditions in all cases: growth mode: biofilm, 24 h; exposure time: 24 h
colistin [1] = compound: T1, CCC(C)CCCC(=O)N[C@@H](CCN)C(=O)N[C@H](C(=O)N[C@@H](CCN)C(=O)N[C@H]1CCNC(=O)[C@H]([C@@H](C)O)NC(=O)[C@H](CCN)NC(=O)[C@H](CCN)NC(=O)[C@H](CC(C)C)NC(=O)[C@@H](CC(C)C)NC(=O)[C@H](CCN)NC1=O)[C@@H](C)O [colistin]; assay: minimum concentration of killing, 2-log CFU reduction of biofilm (MCK99); higher = more biofilm tolerance
Experimental: (§1)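 Clinical P. aeruginosa isolates were grown as static biofilms for 24 h at 37 °C in LB in half-area 96-well plates, then exposed for 24 h to colistin at 1, 4, 16, 64, 256 or […]. Surviving CFU were counted by spotting serial dilutions. MCK is the lowest tested concentration giving the stated log reduction in CFU versus an untreated control; '>1024' means the reduction was not reached at the top dose, and 1 is the lowest dose tested (≤1).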

colistin [2] = compound: T1, colistin; assay: minimum concentration of killing, 1-log CFU reduction of biofilm (MCK90); higher = more biofilm tolerance
Experimental: as §1

colistin [3] = compound: T1, colistin; assay: minimum concentration eradicating biofilm below detection limit (MCK-E); higher = more biofilm tolerance
Experimental: as §1

tobramycin [4] = compound: T2, NC[C@H]1O[C@H](O[C@H]2[C@H](O)[C@@H](O[C@H]3O[C@H](CO)[C@@H](O)[C@H](N)[C@H]3O)[C@H](N)C[C@@H]2N)[C@H](N)C[C@@H]1O [tobramycin]; assay: minimum concentration of killing, 2-log CFU reduction of biofilm (MCK99); higher = more biofilm tolerance
Experimental: as §1, with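 “tobramycin” for “colistin”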

tobramycin [5] = compound: T2, tobramycin; assay: minimum concentration eradicating biofilm below detection limit (MCK-E); higher = more biofilm tolerance
Experimental: as §1, with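 “tobramycin” for “colistin”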

colistin [6] = compound: T1, colistin; assay: minimum concentration of killing, 4-log CFU reduction of biofilm (MCK99.99); higher = more biofilm tolerance
Experimental: as §1

tobramycin [7] = compound: T2, tobramycin; assay: as above
Experimental: as §1, with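 “tobramycin” for “colistin”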

tobramycin [8] = compound: T2, tobramycin; assay: minimum concentration of killing, 1-log CFU reduction of biofilm (MCK90); higher = more biofilm tolerance
Experimental: as §1, with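 “tobramycin” for “colistin”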

Test System	minimum concentration of killing (colistin [1]) [µg/mL]	minimum concentration of killing (colistin [2]) [µg/mL]	minimum concentration eradicating biofilm below detection limit (colistin [3]) [µg/mL]	minimum concentration of killing (tobramycin [4]) [µg/mL]	minimum concentration eradicating biofilm below detection limit (tobramycin [5]) [µg/mL]	minimum concentration of killing (colistin [6]) [µg/mL]	minimum concentration of killing (tobramycin [7]) [µg/mL]	minimum concentration of killing (tobramycin [8]) [µg/mL]
Pseudomonas aeruginosa clinical isolate CH2660	256	64	256	64	256	256	64	4
Pseudomonas aeruginosa clinical isolate CH2672	256	256	256	64	> 1020	256	256	16
Pseudomonas aeruginosa clinical isolate CH2677	64	64	256	1020	> 1020	256	1020	256
Pseudomonas aeruginosa clinical isolate CH5550	256	256	> 1020	16	1020	> 1020	1020	16
Pseudomonas aeruginosa clinical isolate CH5596	64	64	256	4	256	256	64	4
Pseudomonas aeruginosa clinical isolate CH5597	64	64	64	64	256	64	256	≤ 1
Pseudomonas aeruginosa clinical isolate CH5621	256	256	256	1020	> 1020	256	> 1020	64
Pseudomonas aeruginosa clinical isolate CH5638	256	64	256	16	1020	256	1020	16
Pseudomonas aeruginosa clinical isolate ESP001	64	64	256	256	1020	256	256	16
Pseudomonas aeruginosa clinical isolate ESP002	64	4	256	256	256	256	256	256
Pseudomonas aeruginosa clinical isolate ESP003	256	256	256	256	1020	256	1020	16
Pseudomonas aeruginosa clinical isolate ESP004	256	64	256	1020	> 1020	256	1020	256
Pseudomonas aeruginosa clinical isolate ESP006	64	64	256	64	1020	64	256	16
Pseudomonas aeruginosa clinical isolate ESP009	64	64	64	16	1020	64	256	16
Pseudomonas aeruginosa clinical isolate ESP011	16	16	64	256	1020	64	1020	16
Pseudomonas aeruginosa clinical isolate ESP012	64	64	64	> 1020	> 1020	64	> 1020	256
Pseudomonas aeruginosa clinical isolate ESP013	64	64	1020	> 1020	> 1020	256	> 1020	> 1020
Pseudomonas aeruginosa clinical isolate ESP015	256	64	256	64	256	256	256	4

Source: the supplement of paper PMC8920030
